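Cultured in 96-well plates, cells were exposed to test compound for 48 hours across five concentrations. TGI: total growth inhibition.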
Experiments:
Test in all cases: NCI tumour cell line growth inhibition, 48 h
A549 NSCLC = system: A549 NSCLC
ACHN renal = system: ACHN renal
COLO 205 colon = system: COLO 205 colon
DU-145 prostate = system: DU-145 prostate
HCT-116 colon = system: HCT-116 colon
HCT-15 colon = system: HCT-15 colon
HT29 colon = system: HT29 colon
M14 melanoma = system: M14 melanoma
MDA-MB-435 = system: MDA-MB-435
MOLT-4 leukemia = system: MOLT-4 leukemia
NCI-H226 lung = system: NCI-H226 lung
NCI-H23 lung = system: NCI-H23 lung
OVCAR-4 ovarian = system: OVCAR-4 ovarian
OVCAR-8 ovarian = system: OVCAR-8 ovarian
SK-MEL-5 melanoma = system: SK-MEL-5 melanoma
UACC-62 melanoma = system: UACC-62 melanoma
NCI-H460 lung = system: NCI-H460 lung
OVCAR-3 ovarian = system: OVCAR-3 ovarian
SF-295 CNS = system: SF-295 CNS

Row | Structure (SMILES) | TGI (A549 NSCLC) [µM] | TGI (ACHN renal) [µM] | TGI (COLO 205 colon) [µM] | TGI (DU-145 prostate) [µM] | TGI (HCT-116 colon) [µM] | TGI (HCT-15 colon) [µM] | TGI (HT29 colon) [µM] | TGI (M14 melanoma) [µM] | TGI (MDA-MB-435) [µM] | TGI (MOLT-4 leukemia) [µM] | TGI (NCI-H226 lung) [µM] | TGI (NCI-H23 lung) [µM] | TGI (OVCAR-4 ovarian) [µM] | TGI (OVCAR-8 ovarian) [µM] | TGI (SK-MEL-5 melanoma) [µM] | TGI (UACC-62 melanoma) [µM] | TGI (NCI-H460 lung) [µM] | TGI (OVCAR-3 ovarian) [µM] | TGI (SF-295 CNS) [µM]
1 | COC(=O)c1ccc(NCC2=CC(=O)C=CC2=O)cc1 | 41.8 | 27 | 8.67 | 28.8 | 30.4 | 25.9 | 38.8 | 15.8 | 24.3 | 9.58 | 37.2 | 29.8 | 26.5 | 39.9 | 32.5 | 29 | – | – | –
2 | CC/C(SC)=[N+](\C)[O-] | > 100 | > 100 | > 66.9 | – | > 68.4 | > 100 | > 100 | > 100 | – | 79.3 | > 100 | > 100 | > 100 | > 100 | > 100 | > 100 | > 100 | > 100 | > 100
3 | CCN(CC)CCCCC1CCN(CC(=O)N2c3cc(Cl)ccc3NC(=O)CC2C)CC1 (stereo not drawn) | > 100 | > 100 | > 100 | – | > 100 | > 100 | > 100 | > 100 | – | > 100 | > 100 | > 100 | > 100 | – | > 100 | > 100 | > 100 | > 100 | > 100
4 | Cc1ccc(S(=O)(=O)Nn2c(O)c(C#N)c(-c3ccc(N(C)C)cc3)c(C#N)c2=O)cc1 | > 50 | > 50 | > 50 | – | > 50 | > 50 | > 50 | – | > 50 | > 50 | > 50 | – | > 50 | > 50 | > 50 | > 50 | > 50 | – | 5.32
5 | O=C(Nc1ccc(Cl)cc1)NS(=O)(=O)c1c(-c2ccccc2)oc2ccccc2c1=O | > 100 | > 100 | > 100 | > 100 | > 100 | > 100 | > 100 | – | > 100 | > 100 | > 100 | > 100 | > 100 | > 100 | > 100 | 13.6 | > 100 | – | > 100
6 | CC1=C2CN(C(=O)OCC(C)C)CCC2C2=C(C(=O)c3ccccc3C2=O)C1C (stereo not drawn) | > 10 | – | > 10 | > 10 | – | > 10 | > 10 | > 10 | > 10 | > 10 | – | > 10 | > 10 | > 10 | > 10 | > 10 | – | – | > 10
7 | C=C(CN)CO[Si](C)(C)C(C)(C)C | > 100 | > 100 | > 100 | > 100 | > 100 | > 100 | > 100 | > 100 | > 100 | > 100 | > 100 | > 100 | – | > 100 | > 100 | > 100 | > 100 | > 100 | > 100
